Measured values: ChEMBL document CHEMBL4765241, “Identification and Preclinical Pharmacology of ((1 R,3 S)-1-Amino-3-(( S)-6-(2-methoxyphenethyl)-5,6,7,8-tetrahydronaphthalen-2-yl)cyclopentyl)methanol (BMS-986166): A Differentiated Sphingosine-1-phosphate Receptor 1 (S1P) Modulator Advanced into Clinical Trials” (J Med Chem, 2019)
Active and inactive are the calls of the source. The calls are words filed in the database; no cut-off is given here.

Key:
Mus musculus [1] = assay: Antiarthritic activity in DBA/1 mouse model of collagen-induced arthritis assessed as reduction in clinical score administered orally once daily as single dose for 21 days; format: functional, organism-based; conditions: time 21.0 day
[2] = Protein binding in human assessed as bound fraction; format: ADME; conditions: read-out: PB
[3] = Terminal half-life in beagle dog at 1 mg/kg, iv; format: ADME, organism-based, Canis lupus familiaris; conditions: in vivo, read-out: beta t1/2 (converted)
[4] = Half-life in Lewis rat at 2 mg/kg, po measured over 72 hrs by LC-MS/MS analysis; format: ADME, organism-based; conditions: in vivo
Mus musculus [5] = assay: Antiarthritic activity in DBA/1 mouse model of collagen-induced arthritis assessed as reduction in paw histological score at 0.5 mg/kg, po QD administered as single dose for 21 days; format: functional; set-up: scale not given: the % may be the effect or the level left; conditions: time 21 day
Mus musculus [6] = assay: Antiarthritic activity in DBA/1 mouse model of collagen-induced arthritis assessed as reduction in paw histological score administered orally once daily as single dose for 21 days; format: functional, organism-based; conditions: time 21.0 day
[7] = Pulmonary toxicity in Lewis rat assessed as elevation of BAL protein level at 10 mg/kg by advia1800 chemistry analyzer; format: organism-based; conditions: in vivo
Mus musculus [8] = assay: (§1) Immunosuppressive activity in MOG (35 to 55 residues)/pertussis toxin-induced experimental autoimmune encephalomyelitis C57BL/6 mouse model assessed as maximum efficacy causing reduction in EAE clinical score administered orally once daily starting from day 1 post immunization and measured thrice weekly until day 24; format: functional
[9] = Drug metabolism in Lewis rat blood assessed as concentration of parent compound at 2 mg/kg, po measured at 24 hrs by LC-MS/MS analysis; format: ADME, organism-based; conditions: read-out: Ct
Mus musculus [10] = assay: Antiarthritic activity in DBA/1 mouse model of collagen-induced arthritis assessed as reduction in paw histological score at 0.1 mg/kg, po QD administered as single dose for 21 days; format: functional; set-up: scale not given: the % may be the effect or the level left; conditions: time 21 day
[11] = Terminal half-life in cynomolgus monkey at 1 mg/kg, iv; format: ADME, organism-based, Macaca fascicularis; conditions: in vivo, read-out: beta t1/2 (converted)
[12] = Volume of distribution at steady state in Beagle dog at 0.3 mg/kg, po or 1 mg/kg, iv; format: ADME, organism-based, Canis lupus familiaris; conditions: in vivo, read-out: Vdss
[13] = Dissociation constant, pKa of compound; format: physicochemical
[14] = Metabolic stability in cynomolgus monkey liver microsomes assessed as half-life; format: ADME, Macaca fascicularis, Microsome
Rattus norvegicus [15] = assay: Reduction in circulating lymphocytes in Lewis rat blood assessed as effective dose after oral dosing measured at 24 hrs by hematology analyzer based analysis; format: functional
Mus musculus [16] = assay: Immunosuppressive activity in MOG (35 to 55 residues)/pertussis toxin-induced experimental autoimmune encephalomyelitis C57BL/6 mouse model assessed as reduction in EAE clinical scores at 0.1 to 0.5 mg/kg, po QD starting from day 1 post immunization and observed at day 12 until day 24 relative to control; format: functional, organism-based; conditions: dose 0.1-0.5 mg/kg
[17] = Protein binding in rat assessed as bound fraction; format: ADME; conditions: read-out: PB
Rattus norvegicus [18] = assay: Reduction in circulating lymphocytes in Lewis rat blood at 2 mg/kg, po measured at 24 hrs by hematology analyzer based analysis; format: functional; set-up: scale not given: the % may be the effect or the level left
[19] = Genotoxicity in bacteria by Ames test; format: toxicity
[20] = Oral bioavailability in Sprague-Dawley rat at 1 mg/kg; format: ADME, organism-based; conditions: in vivo
[21] = Protein binding in cynomolgus monkey assessed as bound fraction; format: ADME, Macaca fascicularis; conditions: read-out: PB
[22] = Clearance in Sprague-Dawley rat at 1 mg/kg, iv; format: ADME, organism-based; conditions: in vivo
[23] = Protein binding in dog assessed as bound fraction; format: ADME, Canis lupus familiaris; conditions: read-out: PB
[24] = Volume of distribution at steady state in cynomolgus monkey at 1 mg/kg, po or 1 mg/kg, iv; format: ADME, organism-based, Macaca fascicularis; conditions: in vivo, read-out: Vdss
[25] = AUC ratio in orally dosed Beagle dog blood assessed as phosphate metabolite to parent compound; format: ADME, organism-based, Canis lupus familiaris; conditions: in vivo, po
[26] = Clearance in cynomolgus monkey at 1 mg/kg, iv; format: ADME, organism-based, Macaca fascicularis; conditions: in vivo
[27] = Oral bioavailability in beagle dog at 0.3 mg/kg; format: ADME, organism-based, Canis lupus familiaris; conditions: in vivo
Rattus norvegicus [28] = assay: Reduction in circulating lymphocytes in Lewis rat blood at 2 mg/kg, po measured at 4 hrs by hematology analyzer based analysis; format: functional; set-up: scale not given: the % may be the effect or the level left
Mus musculus [29] = assay: Antiarthritic activity in DBA/1 mouse model of collagen-induced arthritis assessed as maximum efficacy causing reduction in paw histological score administered orally once daily as single dose for 21 days; format: functional; conditions: time 21 day
[30] = Distribution coefficient, log D of compound at pH 6.5; format: physicochemical; conditions: octanol/water
Mus musculus [31] = assay: as §1, with “EAE spinal cord” for “EAE”; format: functional
[32] = Terminal half-life in Sprague-Dawley rat at 1 mg/kg, iv; format: ADME, organism-based; conditions: in vivo, read-out: beta t1/2 (converted)
Cytochrome P450 1A2 = biological target: T1, Cytochrome P450 1A2 (Homo sapiens, UniProt P05177); assay: Inhibition of CYP1A2 (unknown origin); format: ADME
T1 sequence (P05177 whole entry): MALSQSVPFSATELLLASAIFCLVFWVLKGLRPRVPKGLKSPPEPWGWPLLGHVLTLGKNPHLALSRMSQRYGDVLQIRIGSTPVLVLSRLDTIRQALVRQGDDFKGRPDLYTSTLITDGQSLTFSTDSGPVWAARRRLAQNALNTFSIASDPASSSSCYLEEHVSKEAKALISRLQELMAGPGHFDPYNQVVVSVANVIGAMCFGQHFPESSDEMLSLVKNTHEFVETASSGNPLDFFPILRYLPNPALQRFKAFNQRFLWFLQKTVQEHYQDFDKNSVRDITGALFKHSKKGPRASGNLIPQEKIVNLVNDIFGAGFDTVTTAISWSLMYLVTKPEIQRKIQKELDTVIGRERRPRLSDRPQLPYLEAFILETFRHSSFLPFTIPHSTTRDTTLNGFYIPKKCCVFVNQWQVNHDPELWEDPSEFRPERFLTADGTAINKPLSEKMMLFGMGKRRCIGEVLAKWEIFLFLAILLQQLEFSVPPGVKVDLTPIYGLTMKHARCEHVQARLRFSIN

[33] = Drug metabolism in Lewis rat blood assessed as concentration of parent compound at 2 mg/kg, po measured at 4 hrs by LC-MS/MS analysis; format: ADME, organism-based; conditions: read-out: Ct
[34] = AUC ratio in orally dosed Sprague-Dawley rat blood assessed as phosphate metabolite to parent compound; format: ADME, organism-based; conditions: in vivo, po
Mus musculus [35] = assay: as §1, with “as” for “as maximum efficacy causing”, “formation of inflammatory lesions in CNS” for “EAE clinical score”; format: functional, organism-based; conditions: dose 0.1-0.5 mg/kg
[36] = Metabolic stability in dog liver microsomes assessed as half-life measured upto 120 mins in presence of NADPH-generating system by LC/MS/MS analysis; format: ADME, Canis lupus familiaris, Microsome
[37] = Metabolic stability in rat liver microsomes assessed as half-life measured upto 120 mins in presence of NADPH-generating system by LC/MS/MS analysis; format: ADME, Microsome
Cytochrome P450 2C19 = Cytochrome P450 2C19 (Homo sapiens, UniProt P33261); assay: Inhibition of CYP2C19 (unknown origin); format: ADME
[38] = Oral bioavailability in cynomolgus monkey at 1 mg/kg; format: ADME, organism-based, Macaca fascicularis; conditions: in vivo
[39] = Tmax in Beagle dog at 0.3 mg/kg, po or 1 mg/kg, iv; format: ADME, organism-based, Canis lupus familiaris; conditions: in vivo
[40] = Metabolic stability in human liver microsomes assessed as half-life measured upto 120 mins in presence of NADPH-generating system by LC/MS/MS analysis; format: ADME, Microsome
[41] = Pulmonary toxicity in Lewis rat assessed as elevation of BAL protein level at 3 mg/kg by advia1800 chemistry analyzer; format: organism-based; conditions: in vivo

Cytochrome P450 2C19, sequence (P33261 whole entry): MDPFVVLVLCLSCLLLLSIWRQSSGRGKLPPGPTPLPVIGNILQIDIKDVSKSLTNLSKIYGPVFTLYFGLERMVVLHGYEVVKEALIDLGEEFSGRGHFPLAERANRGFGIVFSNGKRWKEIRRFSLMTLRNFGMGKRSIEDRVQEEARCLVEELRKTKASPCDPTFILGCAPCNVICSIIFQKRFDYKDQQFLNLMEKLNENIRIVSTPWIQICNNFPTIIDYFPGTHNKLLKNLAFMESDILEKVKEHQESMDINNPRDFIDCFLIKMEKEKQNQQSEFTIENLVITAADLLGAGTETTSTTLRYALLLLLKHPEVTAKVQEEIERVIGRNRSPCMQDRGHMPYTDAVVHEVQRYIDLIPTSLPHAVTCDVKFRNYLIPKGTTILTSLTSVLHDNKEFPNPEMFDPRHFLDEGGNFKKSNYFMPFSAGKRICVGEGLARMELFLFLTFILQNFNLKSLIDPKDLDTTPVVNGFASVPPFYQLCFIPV

## COc1ccccc1CC[C@@H]1CCc2cc([C@H]3CC[C@](N)(CO)C3)ccc2C1 [UDIFITIMOD]
Mus musculus [1]
  Activity: Active
[2]
  fraction unbound: < 0.001
[3]
  half-life: 165 h
[4]
  half-life: 27 h
Mus musculus [5]
  Activity: 92%
Mus musculus [6]
  Activity: Active
[7]
  Activity: 14 mg/dL
Mus musculus [8]
  Emax: 0.5 mg/kg/day
[9]
  concentration at 24 h: 30 nM
Mus musculus [10]
  Activity: 41%
[11]
  half-life: 46 h
[12]
  Vd: 21 L/kg
[13]
  pKa: 9.5
[14]
  half-life: 1.83 h
Rattus norvegicus [15]
  ED50: 0.1 mg/kg
Mus musculus [16]
  Activity: Active
[17]
  fraction unbound: < 0.001
Rattus norvegicus [18]
  Activity: 81%
[19]
  Activity: Non-Toxic
[20]
  bioavailability: 23%
[21]
  fraction unbound: < 0.001
[22]
  clearance: 9.7 mL/min/kg
[23]
  fraction unbound: < 0.001
[24]
  Vd: 10 L/kg
[25]
  Ratio AUC: 3.1
[26]
  clearance: 3.8 mL/min/kg
[27]
  bioavailability: 61%
Rattus norvegicus [28]
  Activity: 76%
Mus musculus [29]
  Emax: 0.5 mg/kg/day
[30]
  logD: 5.05
Mus musculus [31]
  Emax: 0.5 mg/kg/day
[32]
  half-life: 38 h
Cytochrome P450 1A2
  IC50: > 20 µM
[33]
  concentration at 4 h: 40 nM
[34]
  Ratio AUC: 5.2
Mus musculus [35]
  Activity: Dose-dependent effect
[36]
  half-life: 6.2 h
[37]
  half-life: 1.62 h
Cytochrome P450 2C19
  IC50: 6.9 µM
[38]
  bioavailability: 76%
[39]
  Tmax: 6 h
[40]
  half-life: 4.03 h
[41]
  Activity: 8.8 mg/dL
